Values quoted from earlier work, collected in patent US6444676B1, “Use of PARP inhibitors in the treatment of glaucoma” (priority 1999, dated 2002).

How the values were obtained:
neuronal apoptosis = conditions: induced by various injuries including amino acid excitotoxicity
rat retina = conditions: at 3 mM or higher concentrations, administered via intracameral infusion

Row | SMILES | prevention of neuronal apoptosis (neuronal apoptosis) | ischemia/reperfusion damage and DNA fragmentation in rat retina (rat retina)
1 | Nc1cccc2c(=O)[nH][nH]c(=O)c12 [3-aminophtalhydrazide] | prevent neuronal apoptosis | –
2 | Oc1cccc2c(O)nccc12 [1,5-dihydroxyisoquinoline] | prevent neuronal apoptosis | –
3 | NC(=O)c1ccccc1 [benzamide] | prevent neuronal apoptosis | –
4 | NC(=O)c1cccc(N)c1 [3-aminobenzamide] | prevent neuronal apoptosis | reduce ischemia/reperfusion damage and DNA fragmentation
